Measured values: US20220213174A1, “IVIG TREATMENTS FOR SUDDEN SONSORINEURAL HEARING LOSS” (InnoMed Technologies, Inc., priority 2021, published 2022)

Assays:
[1] = tested on: Hearing Loss, including Sudden Sensorineural Healing Loss; conditions: prednisolone 60 mg per day for 5 days then reduced, or 50 mg per day for 10 days; cited from earlier work
[2] = tested on: Sudden Sensorineural Healing Loss; experiment: Example 1: treatment of a patient suffering from hearing loss; format: in vivo, human; conditions: person; 60 mg/day prednisone therapy alone; two weeks
Description: The patient, a person was diagnosed by their doctor after claiming they are suffering from unexplained hearing loss. The patient's doctor diagnosed the patient as suffering from Sudden Sensorineural Healing Loss. […] Two weeks after administration, the patient is co-administered a single dose of IVIG at 2 g/kg and 60 mg prednisone and Sudden Sensorineural Healing Loss related symptoms […].

[3] = tested on: Sudden Sensorineural Hearing Loss; experiment: Example 2: treatment of a patient suffering from hearing loss; format: in vivo, human; conditions: person; 60 mg/day prednisone therapy alone for a month
Description: The patient, a person is diagnosed by their doctor as suffering from Sudden Sensorineural Hearing Loss. […] The patient is then administered IVIG at 2 g/kg and 60 mg prednisone. Within three weeks, the Sudden Sensorineural Hearing Loss is resolved by about 80%. The patient is then administered a second dose of IVIG at 2 g/kg and 60 mg. prednisone. Within two weeks, the patient is resolved by about 95%. A week later, the patient's Sudden Sensorineural Hearing Loss symptoms have disappeared and the patient presents as normal.

Molecule | outcome and time to complete recovery in patients with Hearing Loss [1] | reduction in the symptoms they suffer [2] | resolution of Sudden Sensorineural Hearing Loss [3]
C[C@]12C=CC(=O)C=C1CC[C@@H]1[C@@H]2[C@@H](O)C[C@@]2(C)[C@H]1CC[C@]2(O)C(=O)CO [prednisolone] | improves outcome |  | 
C[C@]12C=CC(=O)C=C1CC[C@@H]1[C@@H]2C(=O)C[C@@]2(C)[C@H]1CC[C@]2(O)C(=O)CO [prednisone] |  | no reduction | did not resolve
methylprednisone | improves outcome |  | 
